The text below walks through data of patent US5747447A, “Stable polypeptide composition” (COR Therapeutics, priority 1995, dated 1998).

One series relates to M21 melanoma cells. In words: M21 melanoma cell adhesion to vitronectin-coated plates. The format is cell-based. The protocol:
M21 melanoma cells were labelled with ^35 S-methionine, and then added to vitronectin-coated plates in the presence of the indicated concentrations of purified snake venom peptides. Cell attachment was measured by solubilizing the cells remaining after an incubation and wash, as previously describe.

For series [1], the target named is ADP-induced human platelet aggregation (Homo sapiens, UniProt P05106+P08514). The experiment in a line: standard aggregation inhibition assay (ADP-induced human platelet aggregation). It is filed as cell-based. As to conditions: for IC50: ADP-induced human platelet aggregation, read-out: Appr, IC50; for IC20: PAI activity, Example 15, read-out: Appr.IC20. The source says: 2. Standard assays directly applied to platelet aggregation, such as those described by Gann, Z.-R., et al., J Biol Chem (1988) 263:19827-19832; Huang, T. F., et al., J Biol Chem (1987) 262:16157-16163; Biochemistry (1989) 28:661-666, cited above and incorporated herein by reference;

Another series concerns the target T1, GP IIb-IIIa (Homo sapiens, UniProt P05106+P08514).
T1 construct: GP IIb-IIIa, prepared in purified form; from tissue; own knowledge of the cited Fitzgerald et al. 1985 method
It is filed as binding. As to conditions: plate assays. Here is the method:
In the assay, GP IIb-IIIa, prepared in purified form, for example as described by Fitzgerald, L. A., et al., Anal Biochem (1985) 151:169-177, incorporated herein by reference, is coated onto a solid support such as beads, test tubes, or microtiter plates. The coated support is then contacted with fibrinogen and with the test material and incubated for a sufficient time to permit maximal binding of fibrinogen to the immobilized GP IIb-IIIa. Fibrinogen is typically provided at a concentration of about 5-50 nM and the test material can, if desired, be added at a series of dilutions. Typical incubations are 2-4 hr at 35° C., the time and temperature being interdependent.
After incubation, the solution containing the fibrinogen and test material is removed and the level of binding of fibrinogen measured by quantitating bound fibrinogen to GP IIb-IIIa. Any suitable means of detection can be used, but it is convenient to employ labeled fibrinogen, for example using radioactive, fluorescent or biotinylated labels. Such methods are well known and need not be elaborated here.
Assessment of the results is aided by employing a control sample, usually identical to the test sample except that the test substance is absent. In this case, percent inhibition may be calculated using the basis, so that [formula] Other measures of inhibition effectiveness, such as IC50, can also be used.

The conditions of series [2]: 25 mM citrate buffer pH 5.25, about 1 mg/mL. From the text: Test sample vials from each temperature condition were removed periodically and analyzed for stability by HPLC and visual inspection as described in Example 1.

Like-named read-outs stand apart in the source and are kept apart here. Where a SMILES comes first, the peptide text is derived from it. Bridges are numbered along the chain shown (N, C = ends). Where no end group is shown, it is not given here. [ ]: non-standard residue; d: D form. Phe(4-Cl) = N[C@@H](Cc1ccc(Cl)cc1)C(=O)O; 2Nal = N[C@@H](Cc1ccc2ccccc2c1)C(=O)O; hArg = N=C(N)NCCCC[C@H](N)C(=O)O; Pen = CC(C)(S)[C@H](N)C(=O)O; NMeS = CN[C@@H](CO)C(=O)O; Aib = CC(C)(N)C(=O)O; Mpa = O=C(O)CCS; Sar = CNCC(=O)O

Turning to `C[C@H](NC(=O)[C@@H]1CSSC[C@H](NC(=O)CN)C(=O)NCC(=O)N[C@@H](CCCCN)C(=O)NCC(=O)N[C@@H](CC(=O)O)C(=O)N[C@@H](Cc2c[nH]c3ccccc23)C(=O)N2CCC[C@H]2C(=O)N1)C(N)=O` [Analog #3, G-C-G-K-G-D-W-P-C-A-NH2], in the series with M21 melanoma cells, the “M21 cell attachment to vitronectin (in words)” value was “ineffective up to 60 uM”.

By IC50 is commonly meant the point on the concentration scale where inhibition reaches its midpoint. `C[C@H](NC(=O)[C@@H]1CSSC[C@H](NC(=O)CN)C(=O)N[C@@H](CCCCN)C(=O)NCC(=O)N[C@@H](CC(=O)O)C(=O)N[C@@H](Cc2c[nH]c3ccccc23)C(=O)N2CCC[C@H]2C(=O)N1)C(N)=O` [Analog #4, G-C-K-G-D-W-P-C-A-NH2] (H-GCKGDWPCA-NH2; disulfide 2-8): the IC50 in series [1] came to 5 µM. Also, the “differential fibrinogen/GP IIb-IIIa versus vitronectin/vitronectin receptor (in words)” value on GP IIb-IIIa is listed as “highest differential”.

Regarding `NCCCC[C@@H]1NC(=O)CNC(=O)[C@@H](N)CSSC[C@@H](C(N)=O)NC(=O)[C@@H]2CCCN2C(=O)[C@H](Cc2c[nH]c3ccccc23)NC(=O)[C@H](CC(=O)O)NC(=O)CNC1=O` [Analog #5, C-G-K-G-D-W-P-C-NH2] (H-CGKGDWPC-NH2; disulfide 1-8), in series [1], the IC50 was found to be 5 µM. For the same compound, on GP IIb-IIIa, the “differential fibrinogen/GP IIb-IIIa versus vitronectin/vitronectin receptor (in words)” value is given as “quite specific”.

On to `C[C@H](NC(=O)[C@@H]1CSSC[C@H](NC(=O)CN)C(=O)N[C@@H](CCCCN)C(=O)NCC(=O)N[C@@H](CC(=O)O)C(=O)N[C@@H](Cc2c[nH]c3ccccc23)C(=O)N1)C(N)=O` [Analog #7, G-C-K-G-D-W-C-A-NH2] (H-GCKGDWCA-NH2; disulfide 2-7 (inferred); N-terminus assumed), for which the “differential fibrinogen/GP IIb-IIIa versus vitronectin/vitronectin receptor (in words)” value on GP IIb-IIIa is recorded as “quite specific”.

One may read the IC20 as the concentration needed for an effect of 20%. In the case of `C[C@@H]1NC(=O)CCSSC[C@@H](C(N)=O)NC(=O)[C@@H]2CCCN2C(=O)[C@H](Cc2c[nH]c3ccccc23)NC(=O)[C@H](CC(=O)O)NC(=O)CNC(=O)[C@H](CCCCNC(=N)N)NC1=O` [PAI 82, Mpr-A-Har-G-D-W-P-C-NH2] ([Mpa]A[hArg]GDWPC-NH2; disulfide 1-8), in series [1], the IC20 amounted to 0.12 µM. Also, the “stability by HPLC as in Example 1” value stood at 99.6 in series [2] (5° C., Time (Days) 0); 98.1 in series [2] (5° C., Time (Days) 29); 98.3 in series [2] (5° C., Time (Days) 60); 97.3 in series [2] (5° C., Time (Days) 90); 97.3 in series [2] (30° C., Time (Days) 29); 97.3 in series [2] (30° C., Time (Days) 60). In addition, the “stability by HPLC as in Example 1” value in series [2] (30° C., Time (Days) 90) was determined as 96.5; in series [2] (45° C., Time (Days) 29), 95.4; in series [2] (45° C., Time (Days) 60) it was 92.6; in series [2] (45° C., Time (Days) 90) it was 90.6.

Turning to `N=C(N)NCCCC[C@@H]1NC(=O)CCSSC[C@@H](C(N)=O)NC(=O)[C@@H]2CCCN2C(=O)[C@@H]2CCCN2C(=O)[C@H](Cc2c[nH]c3ccccc23)NC(=O)[C@H](CC(=O)O)NC(=O)CNC1=O` [PAI 97, Mpr-Har-G-D-W-P-P-C-NH2] ([Mpa][hArg]GDWPPC-NH2; disulfide 1-8), the IC20 in series [1] turned out to be 1.4 µM.

Turning to `CN1CC(=O)N[C@H](C(N)=O)CSSCCC(=O)N[C@@H](CCCCNC(=N)N)C(=O)NCC(=O)N[C@@H](CC(=O)O)C(=O)N[C@@H](Cc2c[nH]c3ccccc23)C(=O)N2CCC[C@H]2C1=O` [PAI 98, Mpr-Har-G-D-W-P-(Sar)-C-NH2] ([Mpa][hArg]GDWP[Sar]C-NH2; disulfide 1-8), the IC20 in series [1] amounted to 0.31 µM.

`C[C@@H]1NC(=O)CCSSC(C)(C)[C@@H](C(N)=O)NC(=O)[C@@H]2CCCN2C(=O)[C@H](Cc2c[nH]c3ccccc23)NC(=O)[C@H](CC(=O)O)NC(=O)CNC(=O)[C@H](CCCCNC(=N)N)NC1=O` [PAI 100, Mpr-A-(Har)-G-D-W-P-Pen-NH2] ([Mpa]A[hArg]GDWP[Pen]-NH2; disulfide 1-8): the IC20 in series [1] is 0.37 µM.

As to `C[C@@H]1NC(=O)CCSSC(C)(C)[C@@H](C(N)=O)NC(=O)[C@@H]2CCCN2C(=O)[C@H](Cc2c[nH]c3ccccc23)NC(=O)[C@H](CC(=O)O)NC(=O)CNC(=O)[C@H](CCCCN)NC1=O` [PAI 101, Mpr-A-K-G-D-W-P-Pen-NH2] ([Mpa]AKGDWP[Pen]-NH2; disulfide 1-8), the IC20 in series [1] is 4.91 µM.

On to `CC1(C)SSCCC(=O)N[C@@H](CC(=O)O)C(=O)N[C@@H](CCCCNC(=N)N)C(=O)NCC(=O)N[C@@H](CC(=O)O)C(=O)N[C@@H](Cc2c[nH]c3ccccc23)C(=O)N2CCC[C@H]2C(=O)N[C@@H]1C(N)=O` [PAI 102, Mpr-D-(Har)-G-D-W-P-Pen-NH2] ([Mpa]D[hArg]GDWP[Pen]-NH2; disulfide 1-8), for which the 20% effect concentration (IC20) in series [1] stood at 4.04 µM.

For the compound `C[C@H](NC(=O)[C@@H]1CSSC[C@H](NC(=O)CN)C(=O)NCC(=O)N[C@@H](CCCNC(=N)N)C(=O)NCC(=O)N[C@@H](CC(=O)O)C(=O)N[C@@H](Cc2c[nH]c3ccccc23)C(=O)N2CCC[C@H]2C(=O)N1)C(N)=O` [reference compound] (H-GCGRGDWPCA-NH2; disulfide 2-9), in the series on M21 melanoma cells, the “M21 cell attachment to vitronectin (in words)” value is listed as “potent inhibitors of cell attachment”.

Turning to “Ac-CKGDWPC-NH2 (cysteine pairing not given here) [Analog #47]”, in series [1], the IC50 came out at 2.5 µM.

In the case of Acetyl-C-K-G-D-C-NH2 [Analog #8], the IC50 in series [1] came to 200 µM.

For the compound “CHGDWPC-NH2 (cysteine pairing not given here) [Analog #46]”, the IC50 in series [1] was 200 µM.

“CKADWPC-NH2 (cysteine pairing not given here) [Analog #37]”: the half-inhibitory concentration (IC50) in series [1] was found to be 100 µM.

As to “CKGDFPC-NH2 (cysteine pairing not given here) [Analog #13]”, in series [1], the IC50 was determined as 20 µM.

On to “CKGDIPC-NH2 (cysteine pairing not given here) [Analog #41]”, for which the IC50 in series [1] turned out to be 100 µM.

Consider “CKGDWGC-NH2 (cysteine pairing not given here) [Analog #34]”, for which the IC50 in series [1] was found to be 100 µM.

With “CKGDWPC-NH2 (cysteine pairing not given here) [Analog #10]”, the IC50 in series [1] was found to be 5 µM.

In the case of “CKGDYPC-NH2 (cysteine pairing not given here) [Analog #12]”, in series [1], the IC50 is 12 µM.

As to CKGD[Phe(4-Cl)]P-NH2 [Analog #42], the IC50 in series [1] stood at 20 µM.

Take “CKGEWPC-NH2 (cysteine pairing not given here) [Analog #35]”: the IC50 in series [1] was > 300 µM.

On to “Mpr-(N-Me-Ser)-Har-G-D-W-P-C-NH2 ([Mpa][NMeS][hArg]GDWPC-NH2; cysteine pairing not given here) [PAI 85]”, for which the IC20 in series [1] was found to be 0.28 µM.

Take “Mpr-Har-G-D-W-P-(Aib)-NH2 ([Mpa][hArg]GDWP[Aib]-NH2; SMILES CC(C)(NC(=O)[C@@H]1CCCN1C(=O)[C@H](Cc1c[nH]c2ccccc12)NC(=O)[C@H](CC(=O)O)NC(=O)CNC(=O)[C@H](CCCCNC(=N)N)NC(=O)CCS)C(N)=O) [PAI 99]”: the IC20 in series [1] was 0.46 µM.

As for Mpr-Har-Sar-D-W-P-C-NH2 [Analog #68], in series [1], the IC50 is 3 µM.

Take “[Mpa]KGD[2Nal]P[Pen]-NH2 (cysteine pairing not given here) [Analog #57]”: the IC50 in series [1] is 1 µM.
